The test system of this assay is P388 leukemia ip, CD2F1 mice, survival T/C. The assay is described as follows: NCI In Vivo Anticancer Drug Screen. Data for tumor model P388 Leukemia (intraperitoneal) in CD2F1 (CDF1) mice. The following applies: endpoint: median survival time, higher = longer survival. The method, boiled down: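 Mice carrying the transplanted tumor received test compound or vehicle. Survival was recorded in each group, and the value is the treated-group measurement divided by that of the vehicle-treated control group.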

The mark [1] stands for this setting: dose: 25.0 mg/kg/injection, schedule: Q01DX009 (ip), vehicle: saline with Tween-80.
Setting [2] is: dose: 50.0 mg/kg/injection, schedule: Q01DX009 (ip), vehicle: saline with Tween-80.
Where [3] appears, read: dose: 60.0 mg/kg/injection, schedule: Q01DX005 (ip), vehicle: saline with Tween-80.
Setting [4] is: dose: 120.0 mg/kg/injection, schedule: Q01DX005 (ip), vehicle: saline with Tween-80.
Setting [5] is: dose: 240.0 mg/kg/injection, schedule: Q01DX005 (ip), vehicle: saline with Tween-80.
The mark [6] stands for this setting: dose: 60.0 mg/kg/injection, schedule: Q01DX005 (ip), vehicle: Klucel (hydroxypropylcellulose) (HPC).
Setting [7] is: dose: 120.0 mg/kg/injection, schedule: Q01DX005 (ip), vehicle: Klucel (hydroxypropylcellulose) (HPC).
[8] abbreviates: dose: 50.0 mg/kg/injection, schedule: Q01DX005 (ip), vehicle: saline with Tween-80.
The mark [9] stands for this setting: dose: 100.0 mg/kg/injection, schedule: Q01DX005 (ip), vehicle: saline with Tween-80.
Setting [10] is: dose: 200.0 mg/kg/injection, schedule: Q01DX005 (ip), vehicle: saline with Tween-80.
The mark [11] stands for this setting: dose: 50.0 mg/kg/injection, schedule: Q01DX005 (ip), vehicle: Klucel (hydroxypropylcellulose) (HPC).
The mark [12] stands for this setting: dose: 50.0 mg/kg/injection, schedule: Q01DX009 (ip), vehicle: Klucel (hydroxypropylcellulose) (HPC).
[13] abbreviates: dose: 100.0 mg/kg/injection, schedule: Q01DX009 (ip), vehicle: Klucel (hydroxypropylcellulose) (HPC).
Setting [14] is: dose: 200.0 mg/kg/injection, schedule: Q01DX009 (ip), vehicle: Klucel (hydroxypropylcellulose) (HPC).

Molecules are shown by their SMILES. Several values for one entry are separate records, joined by “and”; a condition that tells them apart may be missing. Equal entries are not always repeated. Inconclusive results and toxic doses are left out.

In the case of `c1ccc2c(c1)Sc1ccccc1N2CC1CN2CCC1CC2` (configuration not stated), the T/C is, setting by setting: (dose: 6.25 mg/kg/injection, schedule: Q01DX009 (ip), vehicle: saline with Tween-80) 107 % of control; (dose: 12.5 mg/kg/injection, schedule: Q01DX009 (ip), vehicle: saline with Tween-80) 98 % of control and 114 % of control; under setting [1], 112 % of control and 123 % of control; under setting [2], 104 % of control.

Consider `C/C=C(\C)c1cc(OC)c(C)c(=O)o1`, for which the T/C (dose: 25.0 mg/kg/injection, schedule: Q04DX003 (ip), vehicle: Klucel (hydroxypropylcellulose) (HPC)) is 118 % of control; the T/C (dose: 50.0 mg/kg/injection, schedule: Q04DX003 (ip), vehicle: Klucel (hydroxypropylcellulose) (HPC)) was 116 % of control; the T/C (dose: 100.0 mg/kg/injection, schedule: Q04DX003 (ip), vehicle: Klucel (hydroxypropylcellulose) (HPC)) is 114 % of control.

`[O-]/[N+]1=[N+](\[O-])c2ccccc2CCCc2ccccc21`: the T/C under setting [3] was 102 % of control, the T/C under setting [4] was 100 % of control and the T/C under setting [5] is 88 % of control.

Take `C=C1C2CCC3C4(C)CC(OC5OC(CO)C(OS(=O)(=O)O)C(OS(=O)(=O)O)C5OC(=O)CC(C)C)CC(C(=O)O)(C(=O)O)C4CCC3(C2)C1O` (configuration not stated): the T/C was 117 % of control (dose: 1.25 mg/kg/injection, schedule: Q01DX009 (ip), vehicle: saline); 117 % of control (dose: 2.5 mg/kg/injection, schedule: Q01DX009 (ip), vehicle: saline); 114 % of control (dose: 5.0 mg/kg/injection, schedule: Q01DX009 (ip), vehicle: saline).

Regarding `OCC[CH2][Pb]([c]1ccccc1)([c]1ccccc1)[c]1ccccc1`, the T/C runs as follows: (dose: 0.78 mg/kg/injection, schedule: Q01DX009 (ip), vehicle: Klucel (hydroxypropylcellulose) (HPC)) 98 % of control and 105 % of control; (dose: 1.56 mg/kg/injection, schedule: Q01DX009 (ip), vehicle: Klucel (hydroxypropylcellulose) (HPC)) 100 % of control and 104 % of control and 111 % of control; (dose: 3.13 mg/kg/injection, schedule: Q01DX009 (ip), vehicle: Klucel (hydroxypropylcellulose) (HPC)) 104 % of control and 110 % of control and 112 % of control; (dose: 6.25 mg/kg/injection, schedule: Q01DX009 (ip), vehicle: Klucel (hydroxypropylcellulose) (HPC)) 113 % of control and 118 % of control.

As for `Cc1cccc(Cl)c1NC(=O)NCCCN1CCOCC1`, the T/C runs as follows: under setting [3], 102 % of control; under setting [4], 100 % of control; under setting [5], 112 % of control.

Consider `O=C1OC(C2OC(=O)C(=O)C2C(=O)c2ccccc2Cl)C(C(=O)c2ccccc2Cl)C1=O` (configuration not stated), for which the T/C was 99 % of control (dose: 15.0 mg/kg/injection, schedule: Q01DX005 (ip), vehicle: saline + Tween-80 + alcohol) and 91 % of control (dose: 30.0 mg/kg/injection, schedule: Q01DX005 (ip), vehicle: saline + Tween-80 + alcohol).

Regarding `C=CN=NNc1ccccc1OC`, the T/C by setting is: (dose: 100.0 mg/kg/injection, schedule: Q04DX003 (ip), vehicle: saline + Tween-80 + alcohol) 107 % of control; (dose: 200.0 mg/kg/injection, schedule: Q04DX003 (ip), vehicle: saline + Tween-80 + alcohol) 105 % of control; (dose: 400.0 mg/kg/injection, schedule: Q04DX003 (ip), vehicle: saline + Tween-80 + alcohol) 107 % of control.

In the case of `C=CC[P+](Cc1ccccc1)(c1ccccc1)c1ccccc1`, the T/C is, setting by setting: (dose: 0.78 mg/kg/injection, schedule: Q01DX009 (ip), vehicle: saline) 107 % of control; (dose: 1.56 mg/kg/injection, schedule: Q01DX009 (ip), vehicle: saline) 103 % of control; (dose: 3.13 mg/kg/injection, schedule: Q01DX009 (ip), vehicle: saline) 96 % of control.

Take `O=C1C(N=Nc2ccc(Br)cc2)Sc2nc3ccccc3n21` (configuration not stated): the T/C is, setting by setting: under setting [6], 89 % of control; under setting [7], 89 % of control.

Turning to `CN(C)C1CCc2[nH]c3c(F)cc(F)cc3c2C1` (configuration not stated), under setting [2], the T/C is 102 % of control.

With `CN(C)CC1C2CCC(C2)C1O` (configuration not stated), the T/C was 98 % of control under setting [8], 97 % of control under setting [9] and 99 % of control under setting [10].

Turning to `CCN(CC)CCNc1cc2ccccc2c2sc3ccccc3c(=O)c12`, the T/C reads like this: (dose: 25.0 mg/kg/injection, schedule: Q01DX005 (ip), vehicle: distilled water + Tween-80) 102 % of control; (dose: 50.0 mg/kg/injection, schedule: Q01DX005 (ip), vehicle: distilled water + Tween-80) 103 % of control.

For the compound `OCCCCC12CCC(CCCCO)(CC1)CC2`, the T/C runs as follows: (dose: 100.0 mg/kg/injection, schedule: Q04DX002 (ip), vehicle: Klucel (hydroxypropylcellulose) (HPC)) 91 % of control; (dose: 400.0 mg/kg/injection, schedule: Q04DX002 (ip), vehicle: Klucel (hydroxypropylcellulose) (HPC)) 86 % of control.

In the case of `CCN(CC)Cc1cc(N=Nc2ccc(N(C)C)cc2)ccc1O`, the T/C runs as follows: (dose: 100.0 mg/kg/injection, schedule: Q01DX001 (ip), vehicle: saline with Tween-80) 88 % of control; (dose: 200.0 mg/kg/injection, schedule: Q01DX001 (ip), vehicle: saline with Tween-80) 88 % of control.

Take `O=C(COc1ccc([N+](=O)[O-])cc1)NN1C(=O)c2ccc([N+](=O)[O-])cc2C1=O`: the T/C reads like this: under setting [6], 92 % of control; under setting [7], 91 % of control; (dose: 240.0 mg/kg/injection, schedule: Q01DX005 (ip), vehicle: Klucel (hydroxypropylcellulose) (HPC)) 87 % of control.

In the case of `[Br][Sn]([Br])([CH2]CC[CH2][Sn]([Br])([Br])[c]1ccccc1)[c]1ccccc1`, the T/C by setting is: (dose: 12.5 mg/kg/injection, schedule: Q01DX005 (ip), vehicle: Klucel (hydroxypropylcellulose) (HPC)) 101 % of control; (dose: 25.0 mg/kg/injection, schedule: Q01DX005 (ip), vehicle: Klucel (hydroxypropylcellulose) (HPC)) 117 % of control; under setting [11], 115 % of control and 117 % of control.

Consider `CC(=O)Nc1ccc(/C=C2\C(=O)Nc3ccccc32)cc1`, for which the T/C under setting [12] is 99 % of control and 91 % of control; the T/C under setting [13] is 87 % of control and 96 % of control; the T/C under setting [14] is 89 % of control and 91 % of control.

Take `CCOC(=O)C(=Cc1ccccc1Cl)C(=O)OCC`: the T/C was 100 % of control and 111 % of control under setting [1]; 110 % of control under setting [2]; 102 % of control and 120 % of control (dose: 100.0 mg/kg/injection, schedule: Q01DX009 (ip), vehicle: saline with Tween-80); 116 % of control (dose: 200.0 mg/kg/injection, schedule: Q01DX009 (ip), vehicle: saline with Tween-80).

In the case of `C(=N\c1nccs1)/c1ccc[nH]1`, the T/C by setting is: under setting [11], 99 % of control; (dose: 100.0 mg/kg/injection, schedule: Q01DX005 (ip), vehicle: Klucel (hydroxypropylcellulose) (HPC)) 96 % of control; (dose: 200.0 mg/kg/injection, schedule: Q01DX005 (ip), vehicle: Klucel (hydroxypropylcellulose) (HPC)) 100 % of control.

For the compound `Cc1ccc([N+](=O)[O-])cc1NC(=O)COc1ccc(Cl)cc1`, the T/C reads like this: (dose: 100.0 mg/kg/injection, schedule: Q04DX003 (ip), vehicle: saline with Tween-80) 100 % of control; (dose: 200.0 mg/kg/injection, schedule: Q04DX003 (ip), vehicle: saline with Tween-80) 90 % of control; (dose: 400.0 mg/kg/injection, schedule: Q04DX003 (ip), vehicle: saline with Tween-80) 90 % of control.

For `COc1nc(NCC(C)O)nc(NCC(C)O)n1` (configuration not stated), the T/C was 100 % of control (dose: 50.0 mg/kg/injection, schedule: Q01DX009 (ip), vehicle: saline); 89 % of control (dose: 100.0 mg/kg/injection, schedule: Q01DX009 (ip), vehicle: saline); 99 % of control (dose: 200.0 mg/kg/injection, schedule: Q01DX009 (ip), vehicle: saline).

In the case of `Nc1nc2ccc(CO)nc2c(=O)[nH]1`, the T/C is, setting by setting: under setting [8], 98 % of control; under setting [9], 106 % of control; under setting [10], 101 % of control.

Regarding `CC(=O)C(C=O)C(C)=O.CC(=O)CC(C)=O.CC(=O)CC(C)=O.[Ru]`, the T/C is, setting by setting: (dose: 15.0 mg/kg/injection, schedule: Q01DX005 (ip), vehicle: saline with Tween-80) 100 % of control; (dose: 30.0 mg/kg/injection, schedule: Q01DX005 (ip), vehicle: saline with Tween-80) 102 % of control; under setting [3], 104 % of control and 109 % of control.

As to `CN1C(=O)C2C3C=CC(C2C1=O)C1C2C(=O)N(C)C(=O)C2C31` (configuration not stated), the T/C is 100 % of control (dose: 25.0 mg/kg/injection, schedule: Q01DX009 (ip), vehicle: Klucel (hydroxypropylcellulose) (HPC)); 108 % of control under setting [12]; 111 % of control under setting [13]; 104 % of control and 111 % of control under setting [14].

The values above are taken from PubChem BioAssay AID330 (DTP/NCI, 2004).
